Values after ≈ are worked out from the molar mass of the structure shown. Values joined by “and” are separate entries in the source; they are usually repeats but may differ in a detail not shown here. Equal entries are not always repeated. Where two headings read alike, the source gives them in different places.
What was measured:
Cytotoxicity assay (LDH) = conditions: human
Protocol: Cytotoxicity of the compounds was determined using an LDH assay kit (Roche Diagnostics, Mannheim, Germany) as described previously. Human monocytic leukemia THP-1 cells (European Collection of Cell Cultures, Salisbury, UK) were exposed for 24 h at 37 °C to various compound concentrations ranging from 0.37 to 30 μM in RPMI 1640 medium. For LDH assays, cells were seeded into 96-well plates (5×10^4 cells/well in 100 μL culture medium) in triplicate in serum-free RPMI 1640 medium and measurements were taken 24 h after the treatment with the compounds. The maximum concentration of DMSO (Sigma) in the assays never exceeded 0.1 %. […] The median lethal dose values, LC50, were deduced through the production of a dose-response curve. All data from three independent experiments were evaluated using GraphPad Prism 5.00 software (GraphPadSoftware, San Diego, CA, USA).

MRSA SA 3202 = assay: Antibacterial screening, broth microdilution MIC; format: cell-based, methicillin-resistant S. aureus; conditions: Staphylococcus aureus, clinical isolate, 24 h at 37 °C, read-out: MIC MRSA SA 3202
[1] = Lipophilicity determination by RP-HPLC (log k, log D); format: physicochemical; conditions: for log D6.5: RP-HPLC C18, MeOH 72 % / acetate-buffered saline pH 6.5; for log D7.4: RP-HPLC C18, MeOH 72 % / acetate-buffered saline pH 7.4; for log k (logarithm of the capacity factor): RP-HPLC C18, MeOH 72 % / water 28 %
Source text: An HPLC system Agilent 1200 equipped with a DAD detector (Agilent, Santa Clara, CA, USA) was used. A chromatographic column Symmetry® C18 5 μm, 4.6×250 mm, part No. WAT054275 (Waters Corp., Milford, MA, USA) was used. The HPLC separation process was monitored and evaluated with EZChrom Elite software ver. 3.3.2 (Agilent). Isocratic elution by a mixture of MeOH p.a. (72 %) and H2O-HPLC Mili-Q grade (28 %) as a mobile phase was used for the determination of capacity factor k. Isocratic elution by a mixture of MeOH p.a. (72 %) and acetate-buffered saline (pH 7.4 and pH 6.5) (28 %) as a mobile phase was used for the determination of distribution coefficients expressed as D7.4 and D6.5. The total flow of the column was 1.0 mL min^-1, the injection volume was 20 μL, the column temperature was 40 °C, and the sample temperature was 10 °C. The detection wavelength of 210 nm was chosen. A KI methanolic solution was used to determine the dead times (tD). Retention times (tR) were measured in minutes. The capacity factors k were calculated according to the formula k = (tR–tD)/tD, where tR is the retention time of the solute, and tD is the dead time obtained using an unretained analyte. The distribution coefficients DpH were calculated according to the formula DpH = (tR–tD)/tD. Each experiment was repeated three times.
The capacity factor and distribution coefficients were measured by RP-HPLC on a C18 column with methanol as an organic modifier of the mobile phase. In addition to the experimental lipophilicities, predicted log P values were also calculated using ACD/Percepta, see Table 1. […] The values of σ(Ar) are found in a wide range from 0.01 to 1.36, so the compounds contain substituents with both electron-donating and slightly electron-withdrawing properties.

MRSA SA 630 = assay: Antibacterial screening, broth microdilution MIC; format: cell-based, methicillin-resistant S. aureus; conditions: Staphylococcus aureus, read-out: MIC MRSA SA 630
S. aureus ATCC 29213 = assay: Antibacterial screening, broth microdilution MIC; format: cell-based; conditions: Staphylococcus aureus, ATCC29213; ATCC 29213, 24 h at 37 °C; read-out: MIC S. aureus
[2] = tested on: Enterococcus faecalis ATCC 29212; assay: Antibacterial screening, broth microdilution MIC; format: cell-based; conditions: read-out: MIC E. faecalis
VRE 368 = assay: Antibacterial screening, broth microdilution MIC; format: cell-based, vancomycin-resistant E. faecalis; conditions: Enterococcus, read-out: MIC VRE 368
E. coli ATCC 25922 = assay: Antibacterial screening, broth microdilution MIC; format: cell-based; conditions: Escherichia coli, ATCC25922; ATCC 25922, 24 h at 37 °C
[3] = tested on: Mycobacterium kansasii DSM 44162; assay: Antimycobacterial screening, broth dilution MIC; format: cell-based; conditions: DSM44162, 336 h, read-out: MIC M. kansasii
VRE 725B = assay: Antibacterial screening, broth microdilution MIC; format: cell-based, vancomycin-resistant E. faecalis; conditions: Enterococcus, vanA isolate, 24 h at 37 °C, read-out: MIC VRE 725B
[4] = tested on: Mycobacterium smegmatis ATCC 700084; assay: Antimycobacterial screening, broth dilution MIC; format: cell-based; conditions: Mycolicibacterium smegmatis, ATCC700084, 72 h, read-out: MIC M. smegmatis
VRE 342B = assay: Antibacterial screening, broth microdilution MIC; format: cell-based, vancomycin-resistant E. faecalis; conditions: Enterococcus, vanA isolate, 24 h at 37 °C, read-out: MIC VRE 342B
[5] = tested on: Mycobacterium tuberculosis ATCC 25177/H37Ra; assay: Antimycobacterial screening, broth dilution MIC (Alamar blue); format: cell-based; conditions: 336 h, H37Ra, 14 days at 37 °C, Alamar blue, read-out: MIC M. tuberculosis
Protocol: The evaluation of in vitro antimycobacterial activity of the compounds was performed against Mycobacterium tuberculosis ATCC 25177/H37Ra, Mycobacterium kansasii DSM 44162 and Mycobacterium smegmatis ATCC 700084.
The broth dilution micro-method in Middlebrook 7H9 medium (Difco, Lawrence, KS, USA) supplemented with ADC Enrichment (Difco) was used to determine the minimum inhibitory concentration (MIC) as previously described. […] The final concentrations of the evaluated compounds, ranging from 256 to 0.125 μg mL^-1, were obtained by twofold serial dilution of the stock solution in a microtiter plate with a sterile medium. Bacterial inocula were prepared by transferring colonies from culture to sterile water. The plate was inoculated by tested microorganisms. The final concentration of bacterial cells was 1.5×10^6 for M. tuberculosis and 10^5 cells in a microtiter plate for other mycobacteria. Isoniazid and rifampicin (Sigma) were used as reference antimycobacterial drugs. Drug-free controls, sterility controls, and controls consisting of medium and DMSO alone were included. The plates were incubated for a defined time at an appropriate temperature (3 days at 37 °C for M. smegmatis, and 14 days at 37 °C for M. tuberculosis and M. kansasii). […] The MICs against M. tuberculosis were evaluated by Alamar blue (Oxoid). After incubation, 10 % of Alamar blue was added to each well, and the plate was incubated for 24 h. The MIC values were assessed as the lowest concentration of the tested compounds, which prevented changing blue resazurin to pink resorufin. The experiments were repeated three times. The minimum inhibitory concentrations (MICs) were defined as the lowest concentration of the compound at which no visible bacterial growth was observed. The MIC value is routinely and widely used in bacterial assays and is a standard detection limit according to the CLSI [60].

MRSA 63718 = assay: Antibacterial screening, broth microdilution MIC; format: cell-based, methicillin-resistant S. aureus; conditions: Staphylococcus aureus, read-out: MIC MRSA 63718
[6] = ATCC29212, ATCC 29212, 24 h at 37 °C
[7] = clinical isolate, 24 h at 37 °C

SMILES | CC50 at 24 h (Cytotoxicity assay (LDH)) [µM] | MIC (MRSA SA 3202) [µM] | log D6.5 [1] | log D7.4 [1] | log k (logarithm of the capacity factor) [1] | MIC (S. aureus ATCC 29213) [µM] | MIC [2, 6] [µM] | MIC (VRE 368; vanA isolate, 24 h at 37 °C) [µM] | MIC (E. coli ATCC 25922) [µM] | MIC ([3]; DSM 44162, 14 days at 37 °C) [µM] | MIC (VRE 725B) [µM] | MIC (VRE 342B) [µM] | MIC [5] [µM] | MIC (MRSA SA 630; [7]) [µM] | MIC ([4]; ATCC 700084, 3 days at 37 °C) [µM] | MIC (MRSA 63718; [7]) [µM] | also measured
CC[C@@]1(O)C(=O)OCc2c1cc1n(c2=O)Cc2cc3ccccc3nc2-1 [CMP, camptothecin, reference compound] | 0.16 ± 0.07 |  |  |  |  |  |  |  |  |  |  |  |  |  |  |  | 
COc1cc(NC(=O)c2c(O)ccc3ccccc23)cc(OC)c1 [Compound 6, N-(3,5-Dimethoxyphenyl)-2-hydroxynaphthalene-1-carboxamide] | > 30 | 198 (≈ 64 µg/mL) | 0.0411 | 0.0490 | 0.0388 | 198 (≈ 64 µg/mL) | 792 (≈ 256 µg/mL) | 792 (≈ 256 µg/mL) | 792 (≈ 256 µg/mL) | 98.9 (≈ 32 µg/mL) | 792 (≈ 256 µg/mL) | 792 (≈ 256 µg/mL) | 396 (≈ 128 µg/mL) |  |  |  | MIC (MRSA SA 630; 24 h): 396 µM (≈ 128 µg/mL); MIC [4]: 396 µM (≈ 128 µg/mL); MIC (MRSA 63718; 24 h): 396 µM (≈ 128 µg/mL)
Cc1cc(C)cc(NC(=O)c2c(O)ccc3ccccc23)c1 [Compound 13, N-(3,5-Dimethylphenyl)-2-hydroxynaphthalene-1-carboxamide] | > 30 | 54.9 (≈ 16 µg/mL) | 0.3429 | 0.3480 | 0.3367 | 54.9 (≈ 16 µg/mL) | 879 (≈ 256 µg/mL) | 879 (≈ 256 µg/mL) | 879 (≈ 256 µg/mL) | 110 (≈ 32 µg/mL) | 879 (≈ 256 µg/mL) | 879 (≈ 256 µg/mL) | 439 (≈ 128 µg/mL) | 54.9 (≈ 16 µg/mL) | 220 (≈ 64.1 µg/mL) | 54.9 (≈ 16 µg/mL) | 
COc1ccc(Br)cc1NC(=O)c1c(O)ccc2ccccc12 [Compound 19, N-(5-Bromo-2-methoxyphenyl)-2-hydroxynaphthalene-1-carboxamide] |  | 688 (≈ 256 µg/mL) | 0.5836 | 0.5835 | 0.5845 | 688 (≈ 256 µg/mL) | 688 (≈ 256 µg/mL) | 688 (≈ 256 µg/mL) | 688 (≈ 256 µg/mL) | 688 (≈ 256 µg/mL) | 688 (≈ 256 µg/mL) | 688 (≈ 256 µg/mL) | 344 (≈ 128 µg/mL) | 688 (≈ 256 µg/mL) | 688 (≈ 256 µg/mL) | 688 (≈ 256 µg/mL) | 
COc1ccc(C(F)(F)F)cc1NC(=O)c1c(O)ccc2ccccc12 [Compound 20, 2-Hydroxy-N-[2-methoxy-5-(trifluoromethyl)phenyl]naphthalene-1-carboxamide] |  | 709 (≈ 256 µg/mL) | 0.5323 | 0.5305 | 0.5335 | 709 (≈ 256 µg/mL) | 709 (≈ 256 µg/mL) | 709 (≈ 256 µg/mL) | 709 (≈ 256 µg/mL) | 709 (≈ 256 µg/mL) | 709 (≈ 256 µg/mL) | 709 (≈ 256 µg/mL) | 354 (≈ 128 µg/mL) | 709 (≈ 256 µg/mL) | 709 (≈ 256 µg/mL) | 709 (≈ 256 µg/mL) | 
COc1ccc(NC(=O)c2c(O)ccc3ccccc23)cc1C(F)(F)F [Compound 21, 2-Hydroxy-N-[4-methoxy-3-(trifluoromethyl)phenyl]naphthalene-1-carboxamide] |  | 88.6 (≈ 32 µg/mL) | 0.1704 | 0.1745 | 0.16 and 0.1635 | 88.6 (≈ 32 µg/mL) | 88.6 (≈ 32 µg/mL) | 88.6 (≈ 32 µg/mL) | 709 (≈ 256 µg/mL) | 709 (≈ 256 µg/mL) | 88.6 (≈ 32 µg/mL) | 177 (≈ 64 µg/mL) | 354 (≈ 128 µg/mL) | 88.6 (≈ 32 µg/mL) | 177 (≈ 64 µg/mL) | 177 (≈ 64 µg/mL) | 
Cc1ccc(C(F)(F)F)cc1NC(=O)c1c(O)ccc2ccccc12 [Compound 22, 2-Hydroxy-N-[2-methyl-5-(trifluoromethyl)phenyl]naphthalene-1-carboxamide] | > 30 | 2.9 (≈ 1 µg/mL) | 0.3444 | 0.3440 |  | 2.9 (≈ 1 µg/mL) |  |  | 23.2 (≈ 8.01 µg/mL) |  | 92.6 (≈ 32 µg/mL) | 92.6 (≈ 32 µg/mL) | 46.3 (≈ 16 µg/mL) | 2.9 (≈ 1 µg/mL) | 23.2 (≈ 8.01 µg/mL) | 5.79 (≈ 2 µg/mL) | MIC ([2]; ATCC29212, 24 h): 46.3 µM (≈ 16 µg/mL); MIC (VRE 368; 24 h): 46.3 µM (≈ 16 µg/mL); MIC [3]: 46.3 µM (≈ 16 µg/mL)
Cc1ccc(NC(=O)c2c(O)ccc3ccccc23)cc1C(F)(F)F [Compound 23, 2-Hydroxy-N-[4-methyl-3-(trifluoromethyl)phenyl]naphthalene-1-carboxamide] |  | 46.3 (≈ 16 µg/mL) | 0.4621 | 0.4636 | 0.46 and 0.4605 | 23.2 (≈ 8.01 µg/mL) | 741 (≈ 256 µg/mL) | 741 (≈ 256 µg/mL) | 741 (≈ 256 µg/mL) | 741 (≈ 256 µg/mL) | 741 (≈ 256 µg/mL) | 741 (≈ 256 µg/mL) | 371 (≈ 128 µg/mL) | 92.7 (≈ 32 µg/mL) | 46.3 (≈ 16 µg/mL) |  | MIC (MRSA 63718; 24 h): 371 µM (≈ 128 µg/mL)
O=C(Nc1ccc([N+](=O)[O-])c(C(F)(F)F)c1)c1c(O)ccc2ccccc12 [Compound 27, 2-Hydroxy-N-[4-nitro-3-(trifluoromethyl)phenyl]naphthalene-1-carboxamide] | > 30 | 1.33 (≈ 0.5 µg/mL) | 0.3282 | 0.3220 |  | 0.332 (≈ 0.125 µg/mL) | 21.3 (≈ 8.01 µg/mL) | 21.3 (≈ 8.01 µg/mL) | 680 (≈ 256 µg/mL) | 21.3 (≈ 8.01 µg/mL) | 42.5 (≈ 16 µg/mL) | 42.5 (≈ 16 µg/mL) | 85 (≈ 32 µg/mL) | 1.33 (≈ 0.5 µg/mL) | 21.3 (≈ 8.01 µg/mL) | 1.33 (≈ 0.5 µg/mL) | 
